{"source": "patent US20240041884A1", "about": "“Pharmaceutical Combinations for Treating Cancer” (Cellestia Biotech AG, priority 2020, published 2024)", "key": {"MCF-7 cells": {"tested_on": "MCF-7 cells", "assay": "Single agent screening, alamarBlue proliferation assay", "assay_type": "cell-based", "settings": "Homo sapiens, MCF7, MCF-7, 72 hours, read-out: IC50 (μM) values of drugs used as single agent", "method": "(§1) To determine effect of 6-(4-(tert-butyl)phenoxy)pyridin-3-amine with inhibitors of anti-apoptotic proteins, drugs listed in table 1 were used.\n(§2) Cells were treated with each of the listed compounds in table 1 as single agent with a concentration ranging from 10 nM to 10 μM in duplicates. Following treatment for 72 hours, cells were incubated with alamarBlue® for 4 hours and cell proliferation readout was taken using Infinite® F500 (Tecan) plate reader. All volumes (cells and alamarBlue®) were dispensed using Multidrop Combi dispenser using a standard cassette (Speed MEDIUM).\n(§3) AlamarBlue® viability assay: alamarBlue® proliferation assays were performed to determine the growth kinetics of compound treated cells. alamarBlue® consists of a cell permeable substrate resazurin. In metabolically active and proliferating cells, resazurin is converted to resorufin due to an intrinsic reducing power of live cells and produces a red fluorescence. Therefore, production of resorufin serves as an indicator of the viability of the cell population. Proliferation assays were performed by seeding 1500 cells/well in 384 well plate format. Cells were treated in duplicates with pre-determined concentration of compounds as a single agent or in combination with 6-(4-(tert-butyl)phenoxy)pyridin-3-amine for 72 hours. To determine growth kinetics, alamarBlue® (Invitrogen) was added to each well and incubated for 4 hours. alamarBlue® readout was taken using Infinite® F500 (Tecan) plate reader.\n(§4) Data analysis for individual compounds: To determine anti-proliferative activity and IC50 values of individual compounds (listed in table 1) against HCC1187, MCF-7 and RPMI-8402 cells, data were analyzed using GraphPad Prism."}, "HCC1187 cells": {"tested_on": "HCC1187 cells", "assay": "Single agent screening, alamarBlue proliferation assay", "assay_type": "cell-based", "settings": "Homo sapiens, HCC1187, 72 hours, read-out: IC50 (μM) values of drugs used as single agent", "method": "as §1, §2, §3, §4"}, "RPMI-8402 cells": {"tested_on": "RPMI-8402 cells", "assay": "Single agent screening, alamarBlue proliferation assay", "assay_type": "cell-based", "settings": "Homo sapiens, RPMI-8402, 72 hours, read-out: IC50 (μM) values of drugs used as single agent", "method": "as §1, §2, §3, §4"}, "[1]": {"tested_on": "ACC PDX (human adenoid cystic carcinoma patient-derived xenograft)", "assay": "In vivo efficacy in ACC PDX model, tumor growth inhibition", "settings": "ACC PDX in athymic nude mice; for Percentange tumor growth inhibition (TGI): 6-(4-(tert-butyl)phenoxy)pyridin-3-amine 60 mg/kg SC qdx5, Navitoclax 50 mg/kg PO qdx5; for effect on ACC PDX tumor growth: doses of table 5, compared to vehicle", "source_text": "In Vivo Efficacy Evaluation of 6-(4-(tert-butyl)phenoxy)pyridin-3-amine and BCL-2 inhibitor ABT-263 (Navitoclax) in a NOTCH! and BCL-2 Positive Patient-Derived Xenograft (ACC PDX) Model Representing Human Adenoid Cystic Carcinoma in Immune-Deficient Mice\nACC PDX model was implanted into Immuno deficient mice and upon reaching a tumor volume of 150-300 mm^3, animals were randomized for treatment with different agents as indicated below.\nAthymic mice transplanted with ACC PDX model were randomized into 4 treatment cohorts. Vehicle treatment • 2. 6-(4-(tert-butyl)phenoxy)pyridin-3 -amine • 3. ABT-263 • 4. 6-(4-(tert-butyl)phenoxy)pyridin-3-amine+ABT-263\nTumor volume was measured every 3-4 days. Mean tumor volume and SEM was calculated and Tumor growth inhibition was calculated using the formula TGI=1−(TXFavg−TXiavg)/(Cfavg−Ciavg), where TX is drug treatment group, favg=average tumor volume at treatment end, iavg=average tumor volume upon treatment initiation, C=Vehile treatment group."}, "[2]": {"tested_on": "Primary human T cell acute lymphoblastic leukemia with activated NOTCH pathway", "assay": "Efficacy in mice bearing primary human T-ALL, survival", "assay_type": "in vivo", "settings": "NSG mice; 6-(4-(tert-butyl)phenoxy)pyridin-3-amine 40 mg/kg QD5 until termination, Venetoclax 25 mg/kg QD for 7 days", "method": "Efficacy of 6-(4-(tert-butyl)phenoxy)pyridin-3-amine+Venetoclax combination Primary human T cell acute lymphoblastic leukemia with activated NOTCH pathway were intravenously infused into NSG mice. After 7 days of disease establishment, leukemia-bearing mice were treated as below: • 1. Group 1: Vehicle treatment • 2. Group 2: 6-(4-(tert-butyl)phenoxy)pyridin-3-amine treatment at 40 mg/kg, QD5 until termination of the group • 3. Group 3: Venetoclax treatment at 25 mg/kg, QD for 7 days only • 4. Group 4: Venetoclax at 25 mg/kg , QD for first 7 days+6-(4-(tert-butyl)phenoxy)pyridin-3-amine at 40 mg/kg, QD5 until termination of the group.\nAnimals were monitored for survival on a daily basis."}, "blood cells": {"tested_on": "blood cells", "assay": "Safety evaluation in wildtype mice, whole blood analysis", "assay_type": "in vivo", "settings": "4 consecutive days, day 5 bleed, Venetoclax 12.5, 25, 50 mg/kg, 6-(4-(tert-butyl)phenoxy)pyridin-3-amine 60 mg/kg", "method": "Wildtype mice were weighed and dosed for 4 consecutive days as below: • 1. Group 1: Vehicle+Vehicle • 2. Group 2: Vehicle+12.5 mg/kg Venetoclax • 3. Group 3: Vehicle+25 mg/k Venetoclax • 4. Group 4: Vehicle+50 mg/kg Venetoclax • 5. […] On day 5, animals were tail vein bled and whole blood analysis was carried out to determine numbers of different cells."}}, "data": [{"smiles": "Cc1c(-c2c(-c3ccc(F)o3)sc3ncnc(O[C@H](Cc4ccccc4OCc4ccnn4CC(F)(F)F)C(=O)O)c23)ccc(OCCN2CCN(C)CC2)c1Cl", "note": "(atropisomer, axis not shown) [S63845, (2R)-2-[5-[3-chloro-2-methyl-4-[2-(4-methylpiperazin-1-yl)ethoxy]phenyl]-6-(5-fluorofuran-2-yl)thieno[2,3-d]pyrimidin-4-yl]oxy-3-[2-[[2-(2,2,2-trifluoroethyl)pyrazol-3-yl]methoxy]phenyl]propanoic acid]", "values": [{"measurement": "IC50", "setting": "MCF-7 cells", "value": 0.37, "unit": "µM"}, {"measurement": "IC50", "setting": "HCC1187 cells", "value": 0.24, "unit": "µM"}, {"measurement": "IC50", "setting": "RPMI-8402 cells", "value": 0.04, "unit": "µM"}]}, {"smiles": "CC(C)(C)c1ccc(Oc2ccc(N)cn2)cc1", "note": "[6-(4-(tert-butyl)phenoxy)pyridin-3-amine]", "values": [{"measurement": "Percentange tumor growth inhibition (TGI)", "setting": "[1]", "value": 37, "unit": "%"}, {"measurement": "effect on ACC PDX tumor growth", "setting": "[1]", "value": "induces tumor growth retardation compared to vehicle treated group"}, {"measurement": "Number of days by which 100% animals died due to leukemia", "setting": "[2]", "value": 30, "unit": "days"}]}, {"smiles": "CC1(C)CCC(c2ccc(Cl)cc2)=C(CN2CCN(c3ccc(C(=O)NS(=O)(=O)c4ccc(N[C@H](CCN5CCOCC5)CSc5ccccc5)c(S(=O)(=O)C(F)(F)F)c4)cc3)CC2)C1", "note": "[ABT-263 (Navitoclax), 4-[4-[[2-(4-chlorophenyl)-5,5-dimethylcydohexen-1-yl]methyl]piperazin-1-yl]-N-[4-[[(2R)-4-morpholin-4-yl-1-phenylsulfonylbutan-2-yl]amino]-3-(trifluoromethylsulfonyl)phenyl]sulfonylbenzamide]", "values": [{"measurement": "IC50", "setting": "MCF-7 cells", "value": 21, "unit": "µM"}, {"measurement": "IC50", "setting": "HCC1187 cells", "value": 20, "unit": "µM"}, {"measurement": "IC50", "setting": "RPMI-8402 cells", "value": 5.5, "unit": "µM"}, {"measurement": "Percentange tumor growth inhibition (TGI)", "setting": "[1]", "value": 57, "unit": "%"}, {"measurement": "effect on ACC PDX tumor growth", "setting": "[1]", "value": "induces tumor growth retardation compared to vehicle treated group"}]}, {"smiles": "CC1(C)CCC(CN2CCN(c3ccc(C(=O)NS(=O)(=O)c4ccc(NCC5CCOCC5)c([N+](=O)[O-])c4)c(Oc4cnc5[nH]ccc5c4)c3)CC2)=C(c2ccc(Cl)cc2)C1", "note": "[Venetoclax, 4-[4-[[2-(4-chlorophenyl)-4,4-dimethylcydohexen-1-yl]methyl]piperazin-1-yl]-N-[3-nitro-4-(oxan-4-ylmethylamino)phenyl]sulfonyl-2-(1H-pyrrolo[2,3-b]pyridin-5-yloxy)benzamide]", "values": [{"measurement": "Number of days by which 100% animals died due to leukemia", "setting": "[2]", "value": 28, "unit": "days"}, {"measurement": "effect on blood cells (whole blood analysis)", "setting": "blood cells", "value": "decrease of white blood cells, lymphocytes, neutrophils, monocytes and mean platelet mass"}]}]}
